One test concerns LPS-induced NO synthesis. Put plainly: LPS-induced NO (nitrite) production in RAW 264.7 macrophages (Griess Reaction). The test is classed as cell-based, mouse. To be noted: 10 μM; FIG. 3. On the procedure: The mouse macrophage cell line RAW 264.7 was cultured in DMEM supplemented with foetal bovine serum (FBS), 2 mM glutamine and 50 U/ml penicillin/streptomycin (pen/strep). Cells were treated with either test compound (in 0.025% DMSO) or vehicle alone, and added one hour before 50 ng/ml LPS. After incubation for 24 hrs, culture media was collected for PGE2 or TXB2 measurement by ELISA (Cayman Chemical). The effect of test compounds at 10 μM on cell viability was examined using an MTT assay.
Nitrite concentration is a quantitative indicator of NO production (Wang et al. 2002) and was determined by the Griess Reaction (Coligan et al. 1994). Briefly, 100 μL of Griess reagent was added to 50 μL of each supernatant in duplicate in two separate assays, run as for the examination of PGE2 etc. The absorbance at 550 nm was measured, and nitrite concentrations were determined against a standard curve of sodium nitrite.
Background: Nitrite, measured by Griess reagent, commonly stands in for NO production.

Test [1] in a line: Free radical scavenging (DPPH). The note with it: for EC50: 0.1 mM DPPH in ethanol, 20 minutes, absorbance 517 nm, concentration causing 0.6 change in absorbance, read-out: Free radical scavenging ability EC50; for free radical scavenging activity: DPPH. How it is done: The antioxidant (free radical trapping) activity of test compounds was assessed using the stable free radical compound 2,2-diphenyl-1-picrylhydrazyl (DPPH). A stock solution of DPPH was prepared at a concentration of 0.1 mM in ethanol and mixed for 10 minutes prior to use. Test compounds at a concentration of 100 μM were reacted with DPPH for 20 minutes, after which time the absorbance at 517 nm was determined and the change in absorbance compared to a reagent blank (DPPH with ethanol alone). A dose response curve was produced for those compounds with free radical scavenging activity (ΔAbs>0.3) at 100 μM. The IC50 value was estimated as the concentration of test compound that caused a 0.6 change in absorbance (with 1.2 absorbance units representing total scavenging of the DPPH radical).
In general terms: The DPPH test is a chemical assay of radical scavenging.

Some results are limits rather than exact numbers.

Broadly, the EC50 is the midpoint of the concentration-response curve. Take `Oc1ccc([C@H]2COc3cc(O)ccc3C2)cc1` [Eq, equol, reference compound]: the “production of nitrite by macrophages stimulated by LPS” value in the test with LPS-induced NO synthesis was “did not inhibit”. For the same compound, in test [1], the EC50 is more than 100 µM and the “free radical scavenging activity” value is listed as “not active”.

Consider `Oc1ccc(C2=Cc3ccc(O)cc3OC2)cc1` [Compound 37-DHE, reference compound], for which, in the test with LPS-induced NO synthesis, the “production of nitrite by macrophages stimulated by LPS” value is “did not inhibit”. In addition, in test [1], the EC50 came to 55.1 µM and the “free radical scavenging activity” value is given as “only low activity”.

The values above are taken from patent US20110166142A1, “2-SUBSTITUTED ISOFLAVONOID COMPOUNDS, MEDICAMENTS AND USES” (priority 2007, published 2011).
